According to US9192638B2, “Preparation comprising amino acids and plants and its activity in the alcohol detoxification” (Modutech S.A., priority 2009, dated 2015):

Tested on: Mice
Test: Acute cerebral ischemia hypoxia survival time of mice, different formulations (Example 1)
Assay type: in vivo
Settings: 800 mg/kg per day oral, 7 days, sacrificed 1 h after last dosing
Description: The acute cerebral ischemia hypoxia survival time of the mice through different formulations is provided.
Dosage: 800 mg/kg per day per group. The test sample is prepared by redistilled water and drenched into the stomach through the mouth for seven days continuously.
Testing Method: The mice are respectively sacrificed one hour after the last stomach drenching, and the time from the sacrifice of the mice to the time when they stop gasping through mouths is recorded with a second counter.

NC(=O)NCCC[C@H](N)C(=O)O [Sample 1, Citrulline]
Gasp Stopping Time: 12.6 s
